Measured values taken from ChEMBL document CHEMBL5143734, “Seco-Lupane Triterpene Derivatives Induce Ferroptosis through GPX4/ACSL4 Axis and Target Cyclin D1 to Block the Cell Cycle” (J Med Chem, 2022).
pIC50: −log10 of the molar value. Calls of active or inactive are those of the source. The calls are words filed in the database; no cut-off is given here.

What was measured:
HepG2 [1] = experiment: Induction of ferroptosis in human HepG2 cells assessed as increase in intracellular ROS level incubated for 48 hrs by DCFH-DA staining based flow cytometry analysis; assay type: functional, cell-based; settings: dose 0.25-1 µM, DDE = dose-dependent effect
[2] = Upregulation of Cyclin E1 mRNA expression in human HepG2 cells assessed as fragments per kilo base of exon per million mapped fragments […] (reference value: 11.43 to 14.86); assay type: functional
HepG2 [3] = experiment: Induction of cell cycle arrest in human HepG2 cells assessed as increase in G1 phase at 0.5 to 2 uM; assay type: functional, cell-based; settings: dose 0.5-2 µM
HepG2 [4] = experiment: Antiinvasive activity in human HepG2 cells assessed as inhibition of cell invasion measured after 24 hrs by crystal violet staining based transwell assay; assay type: functional; settings: dose 0.125-0.5 µM, DDE = dose-dependent effect
HepG2 [5] = experiment: Induction of ferroptosis in human HepG2 cells assessed as decrease in GPX4 mRNA expression measured after 36 hrs by qRT-PCR analysis; assay type: functional, cell-based; settings: dose […], DDE = dose-dependent effect
HepG2 [6] = experiment: Downregulation of Cyclin B1 mRNA expression in human HepG2 cells assessed as fragments per kilo base of exon per million mapped fragments by RT-qPCR analysis (reference value: 54.40 to 58.62); assay type: functional
HepG2 [7] = experiment: Induction of ferroptosis in human HepG2 cells assessed as log2 fold increase in ACSL4 mRNA expression by qRT-PCR analysis; assay type: functional
HepG2 [8] = experiment: Induction of ferroptosis in human HepG2 cells assessed as decrease in GPX4 protein expression at 2 uM by Western blot analysis; assay type: functional, cell-based; settings: time 6-36 hrs, TDE = time-dependent effect
HepG2 [9] = experiment: Induction of ferroptosis in human HepG2 cells assessed as log2 fold decrease in GPX4 mRNA expression by qRT-PCR analysis; assay type: functional
HepG2 [10] = experiment: Cytotoxicity against human HepG2 cells assessed as reduction in cell viability at 5 to 100 uM relative to control; assay type: functional; settings: dose 5-100 µM
HepG2 [11] = experiment: Inhibition of Cyclin D1 in human HepG2 cells assessed as reduction in Rb phosphorylation by Western blot analysis; assay type: cell-based; settings: dose 0.5-2 µM, DDE = dose-dependent effect
HepG2 [12] = experiment: Downregulation of Cyclin B1 mRNA expression in human HepG2 cells at 0.5 to 2.0 uM by RT-qPCR analysis; assay type: functional, cell-based; settings: dose 0.5-2 µM, time 6-36 hrs, TDE = time-dependent effect
HepG2 [13] = experiment: Antimigratory activity against human HepG2 cells assessed as reduction in cell migration measured after 24 hrs by crystal violet staining based transwell assay; assay type: functional; settings: dose 0.125-0.5 µM, DDE = dose-dependent effect
HepG2 [14] = experiment: Induction of ferroptosis in human HepG2 cells assessed as increase in intracellular ROS level incubated for 48 hrs by DCFH-DA staining based fluorescence microscopic analysis; assay type: functional, cell-based; settings: dose 0.25-1 µM, DDE = dose-dependent effect
HepG2 [15] = experiment: Induction of ferroptosis in human HepG2 cells assessed as upregulation of ACSL4 mRNA expression by measuring fragments per kilo base of exon per million mapped fragments […] (reference value: 75.85 to 97.44); assay type: functional
HepG2 [16] = experiment: Cytotoxicity against human HepG2 cells assessed as reduction in cell viability at 50 uM incubated for 48 hrs by CCK-8 assay; assay type: functional, cell-based
HepG2 [17] = experiment: Induction of cell death in human HepG2 cells measured after 48 hrs by Annexin V-FITC/PI double staining based flow cytometry analysis; assay type: functional; settings: dose 0.5-2 µM, DDE = dose-dependent effect
HepG2 [18] = experiment: Downregulation of Cyclin D1 mRNA expression in human HepG2 cells at 0.5 to 2.0 uM by RT-qPCR analysis; assay type: functional, cell-based; settings: dose 0.5-2 µM, time 6-36 hrs, TDE = time-dependent effect
[19] = biological target: G1/S-specific cyclin-D1 (Homo sapiens) (UniProt P24385); experiment: Binding affinity to Cyclin D1 in human HepG2 cells by laser confocal microscopy; assay type: cell-based
Chain of G1/S-specific cyclin-D1 (Homo sapiens) (P24385 whole entry): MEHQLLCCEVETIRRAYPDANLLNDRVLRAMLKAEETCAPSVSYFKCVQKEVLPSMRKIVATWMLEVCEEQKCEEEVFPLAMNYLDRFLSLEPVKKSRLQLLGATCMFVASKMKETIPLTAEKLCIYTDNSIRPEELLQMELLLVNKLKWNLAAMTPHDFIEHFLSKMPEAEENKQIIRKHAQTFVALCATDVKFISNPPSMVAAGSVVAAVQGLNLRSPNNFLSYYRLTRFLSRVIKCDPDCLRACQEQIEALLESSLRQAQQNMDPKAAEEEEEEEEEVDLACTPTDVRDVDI

HepG2 [20] = experiment: Induction of ferroptosis in human HepG2 cells assessed as increase in ACSL4 protein expression at 2 uM by Western blot analysis; assay type: functional, cell-based; settings: time 6-36 hrs, TDE = time-dependent effect
HepG2 [21] = experiment: Downregulation of Cyclin D1 mRNA expression in human HepG2 cells assessed as fragments per kilo base of exon per million mapped fragments by RT-qPCR analysis (reference value: 59.65 to 61.74); assay type: functional
[22] = Inhibition of Cyclin D1 in human HepG2 cells assessed as reduction in CDK4 expression by Western blot analysis; settings: dose 0.5-2 µM, DDE = dose-dependent effect
MCF7 = experiment: Cytotoxicity against human MCF7 cells assessed as reduction in cell viability by CCK-8 assay; assay type: functional, cell-based
HepG2 [23] = experiment: Downregulation of Cyclin D1 protein expression in human HepG2 cells measured at 2 uM by Western blot analysis; assay type: functional, cell-based; settings: time 6-36 hrs, TDE = time-dependent effect
HepG2 [24] = experiment: Inhibition of Cyclin D1 in human HepG2 cells assessed as reduction in E2F expression by Western blot analysis; assay type: cell-based; settings: dose 0.5-2 µM, DDE = dose-dependent effect
A549 = experiment: Cytotoxicity against human A549 cells assessed as reduction in cell viability by CCK-8 assay; assay type: functional, cell-based
HepG2 [25] = experiment: Induction of ferroptosis in human HepG2 cells assessed as increase in intracellular ROS level at 2 uM incubated for 48 hrs by DCFH-DA staining based flow cytometry analysis; assay type: functional
HepG2 [26] = experiment: Downregulation of Cyclin A2 mRNA expression in human HepG2 cells assessed as fragments per kilo base of exon per million mapped fragments by RT-qPCR analysis (reference value: 37.48 to 47.03); assay type: functional
HepG2 [27] = experiment: Inhibition of Cyclin D1 in human HepG2 cells assessed as reduction in CDK6 expression by Western blot analysis; assay type: cell-based; settings: dose 0.5-2 µM, DDE = dose-dependent effect
HepG2 [28] = experiment: Cytotoxicity against human HepG2 cells assessed as reduction in cell viability at 10 uM relative to control; assay type: functional
HepG2 [29] = experiment: Induction of ferroptosis in human HepG2 cells assessed as increased in MDA level incubated for 36 hrs; assay type: functional, cell-based; settings: dose 0.5-2 µM, DDE = dose-dependent effect
HepG2 [30] = experiment: Cytotoxicity against human HepG2 cells assessed as reduction in cell viability incubated for 48 hrs by CCK-8 assay; assay type: functional, cell-based; settings: dose 0.78125-50 µM, DDE = dose-dependent effect
HepG2 [31] = experiment: Downregulation of Cyclin A2 mRNA expression in human HepG2 cells at 0.5 to 2.0 uM by RT-qPCR analysis; assay type: functional, cell-based; settings: dose 0.5-2 µM, time 6-36 hrs, TDE = time-dependent effect
HepG2 [32] = experiment: Induction of ferroptosis in human HepG2 cells assessed as downregulation of GPX4 mRNA expression by measuring fragments per kilo base of exon per million mapped fragments by qRT-PCR analysis (reference value: 298.18 to 302.30); assay type: functional
HepG2 [33] = experiment: Induction of ferroptosis in human HepG2 cells assessed as decrease in GPX4 protein expression at 2 uM measured after 6 hrs by Western blot analysis; assay type: functional, cell-based
HepG2 [34] = experiment: Antiproliferative activity against human HepG2 cells incubated for 24 to 48 hrs by Edu staining based fluorescence microscopy assay; assay type: functional, cell-based; settings: dose 0.125-2 µM, time 24-48 hrs, DDE = dose-dependent effect
HepG2 [35] = experiment: Downregulation of Cyclin E1 mRNA expression in human HepG2 cells at 0.5 to 2.0 uM by RT-qPCR analysis; assay type: functional, cell-based; settings: dose 0.5-2 µM, time 6-36 hrs, TDE = time-dependent effect
HepG2 [36] = experiment: Cytotoxicity against human HepG2 cells assessed as reduction in cell viability by CCK-8 assay; assay type: functional, cell-based
PANC-1 = experiment: Cytotoxicity against human PANC-1 cells assessed as reduction in cell viability by CCK-8 assay; assay type: functional, cell-based

Which Activity (HepG2 [1]) does the source give for C=C(C)[C@@H]1CC[C@]2(C(=O)OCCCCCn3cc(CCN)c4ccccc43)CC[C@]3(C)[C@H](C[C@H]4OC(=O)C[C@@H](O)[C@]5(C)[C@@H]4[C@@]3(C)CC[C@H]5C(=C)C)[C@@H]12 here?
Its Activity is “Dde”.

What about the Activity [2] of the same compound?
Its Activity is 14.11.

And the Activity (HepG2 [3])?
Its Activity is “Active”.

And the Activity (HepG2 [4])?
The Activity was “Dde”.

And the Activity (HepG2 [5])?
The Activity was “Dde”.

What about the Activity (HepG2 [6]) of the same compound?
Its Activity is 39.59.

And the log2FC (HepG2 [7])?
The log2FC was 0.83.

And the Activity (HepG2 [8])?
Its Activity is “Tde”.

And the log2FC (HepG2 [9])?
The log2FC was -0.29.

What about the Activity (HepG2 [10]) of the same compound?
Its Activity is 10.55%.

And the inhibition (HepG2 [11])?
Its inhibition is “Dde”.

What about the Activity (HepG2 [12]) of the same compound?
The Activity was “Tde”.

What about the Activity (HepG2 [13]) of the same compound?
Its Activity is “Dde”.

What about the Activity (HepG2 [14]) of the same compound?
The Activity was “Dde”.

What about the Activity (HepG2 [15]) of the same compound?
Its Activity is 132.19.

What about the Activity (HepG2 [16]) of the same compound?
The Activity was “Active”.

What about the Activity (HepG2 [17]) of the same compound?
Its Activity is “Dde”.

What about the Activity (HepG2 [18]) of the same compound?
The Activity was “Tde”.

What about the Activity [19] of the same compound?
The Activity was “Active”.

What about the Activity (HepG2 [20]) of the same compound?
Its Activity is “Tde”.

And the Activity (HepG2 [21])?
The Activity was 53.4.

What about the inhibition [22] of the same compound?
The inhibition was “Dde”.

And the pIC50 (MCF7)?
The pIC50 was 5.27.

And the Activity (HepG2 [23])?
Its Activity is “Tde”.

What about the inhibition (HepG2 [24]) of the same compound?
Its inhibition is “Dde”.

And the pIC50 (A549)?
Its pIC50 is 5.26.

What about the Activity (HepG2 [25]) of the same compound?
Its Activity is 96.39%.

What about the Activity (HepG2 [26]) of the same compound?
The Activity was 30.38.

What about the inhibition (HepG2 [27]) of the same compound?
Its inhibition is “Dde”.

And the Activity (HepG2 [28])?
The Activity was 20.15%.

And the Activity (HepG2 [29])?
Its Activity is “Dde”.

And the Activity (HepG2 [30])?
The Activity was “Dde”.

And the Activity (HepG2 [31])?
The Activity was “Tde”.

And the Activity (HepG2 [32])?
The Activity was 221.77.

And the Activity (HepG2 [33])?
The Activity was “Active”.

What about the Activity (HepG2 [34]) of the same compound?
The Activity was “Dde”.

And the Activity (HepG2 [35])?
Its Activity is “Tde”.

What about the pIC50 (HepG2 [36]) of the same compound?
Its pIC50 is 6.01.

What about the pIC50 (PANC-1) of the same compound?
Its pIC50 is 5.26.
